Reference: the supplement of paper PMC10627819

What was measured:
Conditions in all cases: main component drawn
[1] = test system: S. aureus Newman; assay: Bliss interaction score (quartile over a dose matrix) (fitness difference); higher = more antagonism (negative = synergy)
Summary of the method: (§1)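 Growth was read as OD595 when cultures entered stationary phase, and each value was divided by the plate's robust no-drug mean and capped at 1. This normalised ratio is the fitness value, and fitness for each single drug came from the combination data. The Bliss score subtracts the expected fitness, taken as the product, from the observed fitness and is given as quartiles across technical, biological and donor/recipient replicates.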

[2] = test system: S. pneumoniae D39V; assay: as above
Summary of the method: as §1

[3] = test system: B. subtilis 168; assay: as above
Summary of the method: as §1

[4] = test system: S. aureus DSM 20231; assay: as above
Summary of the method: as §1

[5] = test system: B. subtilis 168; assay: fitness (endpoint OD595 vs no drug) (fraction); higher = more growth
Summary of the method: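 Growth medium was TSB, LB Lennox or CY, and plates were kept at 37 °C. Inoculation was at OD595 0.01 in 384-well plates, at 30 µl per well or 55 µl for S. pneumoniae. OD595 was monitored every 30 min for 14 h and background-subtracted using the first reading. Fitness is the optical density on entering stationary phase divided by the robust mean of no-drug controls, with values capped at 1.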
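For Bliss interaction score (quartile over a dose matrix) in this document: first quartile when negative (synergy) and third quartile when positive (antagonism).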
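For fitness (endpoint OD595 vs no drug) in this document: OD595 on entry to stationary phase over no-drug wells; at most 1.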

CC[C@H](C)[C@H](N)C1=N[C@H](C(=O)N[C@@H](CC(C)C)C(=O)N[C@H](CCC(=O)O)C(=O)N[C@H](C(=O)N[C@H]2CCCCNC(=O)[C@H](CC(N)=O)NC(=O)[C@@H](CC(=O)O)NC(=O)[C@H](Cc3cnc[nH]3)NC(=O)[C@@H](Cc3ccccc3)NC(=O)[C@H]([C@@H](C)CC)NC(=O)[C@@H](CCCN)NC2=O)[C@@H](C)CC)CS1 [Bacitracin] + CC(=O)NC[C@H]1CN(c2ccc(N3CCOCC3)c(F)c2)C(=O)O1 [Linezolid]
Conditions | Bliss interaction score
[1] | -0.087
[2] | -0.0719
[3] | -0.0832
[4] | -0.0504

[5], partner 0.0625 µg/mL, one replicate
Conditions | fitness
first compound 37.5 µg/mL | 0.823
first compound 75 µg/mL | 0.749
first compound 150 µg/mL | 0.3

fitness, [5]
Conditions | first compound 37.5 µg/mL | first compound 75 µg/mL | first compound 150 µg/mL
partner 0.125 µg/mL | 0.609 | – | –
partner 0.25 µg/mL | – | 0.13 | 0.0363
partner 0.5 µg/mL | 0.0502 | 0.0304 | 0.0221

CC[C@H](C)[C@H](N)C1=N[C@H](C(=O)N[C@@H](CC(C)C)C(=O)N[C@H](CCC(=O)O)C(=O)N[C@H](C(=O)N[C@H]2CCCCNC(=O)[C@H](CC(N)=O)NC(=O)[C@@H](CC(=O)O)NC(=O)[C@H](Cc3cnc[nH]3)NC(=O)[C@@H](Cc3ccccc3)NC(=O)[C@H]([C@@H](C)CC)NC(=O)[C@@H](CCCN)NC2=O)[C@@H](C)CC)CS1 [Bacitracin] + CCC(C)C1C(=O)NC(=C)C(=O)NC(C(=O)NC(CSCC(C(=O)N1)NC(=O)/C(=C/C)/NC(=O)C(C(C)CC)N)C(=O)NC2C(SCC(NC(=O)CNC(=O)C3CCCN3C2=O)C(=O)NC(CCCCN)C(=O)NC4C(SCC(NC(=O)CNC(=O)C(NC(=O)C(NC(=O)C(NC(=O)CNC4=O)C)CC(C)C)CCSC)C(=O)NC(CC(=O)N)C(=O)NC(CCSC)C(=O)NC(CCCCN)C(=O)NC5C(SCC6C(=O)NC(C(=O)NC(CSC(C(C(=O)N6)NC(=O)C(NC5=O)C)C)C(=O)NC(CO)C(=O)NC(C(C)CC)C(=O)NC(CC7=CN=CN7)C(=O)NC(C(C)C)C(=O)NC(=C)C(=O)NC(CCCCN)C(=O)O)CC8=CN=CN8)C)C)C)CC(C)C [Nisin]
Conditions | Bliss interaction score
[1] | 0.112
[2] | -0.0689
[3] | -0.191
[4] | -0.0406

fitness, [5]
Conditions | first compound 37.5 µg/mL | first compound 75 µg/mL | first compound 150 µg/mL
partner 0.5 µg/mL | 0.78 | 0.711 | 0.516
partner 1 µg/mL | 0.754 | 0.575 | 0.269
partner 2 µg/mL | 0.473 | 0.165 | 0.0302

fitness, [5], one replicate
Conditions | partner 1.25 µg/mL | partner 1.6 µg/mL | partner 2.5 µg/mL | partner 3.2 µg/mL | partner 4 µg/mL | partner 5 µg/mL | partner 6.4 µg/mL | partner 8 µg/mL | partner 16 µg/mL
first compound 37.5 µg/mL | 0.807 | 0.409 | 0.293 | 0.0184 | 0.0266 | 0.0118 | 0.0283 | 0.0124 | 0.0057
first compound 75 µg/mL | 0.809 | 0.178 | 0.0249 | 0.0153 | 0.116 | 0.0085 | 0.0276 | 0.0348 | 0.0088
first compound 150 µg/mL | 0.611 | 0.0142 | 0.0156 | 0.0131 | 0.0334 | 0.0106 | 0.0205 | 0.0221 | 0.0151

CC[C@H](C)[C@H](N)C1=N[C@H](C(=O)N[C@@H](CC(C)C)C(=O)N[C@H](CCC(=O)O)C(=O)N[C@H](C(=O)N[C@H]2CCCCNC(=O)[C@H](CC(N)=O)NC(=O)[C@@H](CC(=O)O)NC(=O)[C@H](Cc3cnc[nH]3)NC(=O)[C@@H](Cc3ccccc3)NC(=O)[C@H]([C@@H](C)CC)NC(=O)[C@@H](CCCN)NC2=O)[C@@H](C)CC)CS1 [Bacitracin] + CCC[C@@H]1C[C@@H](C(=O)N[C@@H]([C@H]2O[C@H](SC)[C@H](O)[C@@H](O)[C@H]2O)[C@@H](C)O)N(C)C1 [Lincomycin]
Conditions | Bliss interaction score
[1] | 0.104
[2] | -0.0546
[3] | 0.0963
[4] | -0.046

fitness, [5]
Conditions | first compound 37.5 µg/mL | first compound 75 µg/mL | first compound 150 µg/mL
partner 0.1 µg/mL | 0.955 | 0.915 | 0.896
partner 0.2 µg/mL | 0.919 | 0.832 | 0.733
partner 0.4 µg/mL | 0.86 | 0.827 | –

fitness, [5], one replicate
Conditions | first compound 37.5 µg/mL | first compound 75 µg/mL | first compound 150 µg/mL
partner 0.8 µg/mL | 0.764 | 0.74 | 0.389
partner 1.6 µg/mL | 0.769 | 0.686 | 0.439

CC[C@H](C)[C@H](N)C1=N[C@H](C(=O)N[C@@H](CC(C)C)C(=O)N[C@H](CCC(=O)O)C(=O)N[C@H](C(=O)N[C@H]2CCCCNC(=O)[C@H](CC(N)=O)NC(=O)[C@@H](CC(=O)O)NC(=O)[C@H](Cc3cnc[nH]3)NC(=O)[C@@H](Cc3ccccc3)NC(=O)[C@H]([C@@H](C)CC)NC(=O)[C@@H](CCCN)NC2=O)[C@@H](C)CC)CS1 [Bacitracin] + CN(C)C(=O)C(CCN1CCC(O)(c2ccc(Cl)cc2)CC1)(c1ccccc1)c1ccccc1 [Loperamide]
Conditions | Bliss interaction score
[1] | -0.0942
[2] | 0.1
[3] | -0.13
[4] | -0.0677

fitness, [5]
Conditions | first compound 37.5 µg/mL | first compound 75 µg/mL | first compound 150 µg/mL
partner 25 µg/mL | 0.598 | – | –
partner 50 µg/mL | – | 0.0219 | 0.0315
partner 100 µg/mL | 0.0325 | 0.0281 | 0.0237

CC[C@H](C)[C@H](N)C1=N[C@H](C(=O)N[C@@H](CC(C)C)C(=O)N[C@H](CCC(=O)O)C(=O)N[C@H](C(=O)N[C@H]2CCCCNC(=O)[C@H](CC(N)=O)NC(=O)[C@@H](CC(=O)O)NC(=O)[C@H](Cc3cnc[nH]3)NC(=O)[C@@H](Cc3ccccc3)NC(=O)[C@H]([C@@H](C)CC)NC(=O)[C@@H](CCCN)NC2=O)[C@@H](C)CC)CS1 [Bacitracin] + CO[C@@H]1[C@@H](OC(N)=O)[C@@H](O)[C@H](Oc2ccc3c(O)c(NC(=O)c4ccc(O)c(CC=C(C)C)c4)c(=O)oc3c2C)OC1(C)C [Novobiocin]
Conditions | Bliss interaction score
[1] | -0.0809
[2] | 0.0678
[3] | 0.126
[4] | -0.0399

fitness, [5]
Conditions | first compound 37.5 µg/mL | first compound 75 µg/mL | first compound 150 µg/mL
partner 0.0125 µg/mL | ≥ 1 | 0.97 | 0.946
partner 0.025 µg/mL | 0.988 | ≥ 1 | 0.941
partner 0.05 µg/mL | ≥ 1 | 0.964 | 0.935

fitness, [5], one replicate
Conditions | partner 0.1 µg/mL | partner 0.125 µg/mL | partner 0.2 µg/mL | partner 0.25 µg/mL | partner 0.5 µg/mL
first compound 37.5 µg/mL | 0.817 | 0.917 | 0.861 | 0.894 | 0.431
first compound 75 µg/mL | 0.763 | 0.959 | 0.804 | 0.922 | 0.293
first compound 150 µg/mL | 0.534 | 0.861 | 0.63 | 0.559 | 0.164

CC[C@H](C)[C@H](N)C1=N[C@H](C(=O)N[C@@H](CC(C)C)C(=O)N[C@H](CCC(=O)O)C(=O)N[C@H](C(=O)N[C@H]2CCCCNC(=O)[C@H](CC(N)=O)NC(=O)[C@@H](CC(=O)O)NC(=O)[C@H](Cc3cnc[nH]3)NC(=O)[C@@H](Cc3ccccc3)NC(=O)[C@H]([C@@H](C)CC)NC(=O)[C@@H](CCCN)NC2=O)[C@@H](C)CC)CS1 [Bacitracin] + COc1cc(Cc2cnc(N)nc2N)cc(OC)c1OC [Trimethoprim]
Conditions | Bliss interaction score
[1] | -0.08
[2] | -0.0391
[3] | 0.0858
[4] | 0.013

fitness, [5], one replicate
Conditions | partner 0.1 µg/mL | partner 0.2 µg/mL | partner 0.4 µg/mL | partner 1 µg/mL | partner 2 µg/mL
first compound 37.5 µg/mL | 0.925 | 0.65 | 0.508 | 0.462 | 0.24
first compound 75 µg/mL | 0.898 | 0.715 | 0.532 | 0.441 | 0.235
first compound 150 µg/mL | 0.875 | 0.71 | 0.499 | 0.348 | 0.219

fitness, [5]
Conditions | first compound 37.5 µg/mL | first compound 75 µg/mL | first compound 150 µg/mL
partner 0.125 µg/mL | 0.615 | 0.593 | 0.338
partner 0.5 µg/mL | 0.518 | – | –

CC[C@H](C)[C@H](N)C1=N[C@H](C(=O)N[C@@H](CC(C)C)C(=O)N[C@H](CCC(=O)O)C(=O)N[C@H](C(=O)N[C@H]2CCCCNC(=O)[C@H](CC(N)=O)NC(=O)[C@@H](CC(=O)O)NC(=O)[C@H](Cc3cnc[nH]3)NC(=O)[C@@H](Cc3ccccc3)NC(=O)[C@H]([C@@H](C)CC)NC(=O)[C@@H](CCCN)NC2=O)[C@@H](C)CC)CS1 [Bacitracin] + C[C@H]1COc2c(N3CCN(C)CC3)c(F)cc3c(=O)c(C(=O)O)cn1c23 [Levofloxacin]
Conditions | Bliss interaction score
[1] | -0.043
[2] | -0.072
[3] | 0.0288
[4] | 0.034

fitness, [5], one replicate
Conditions | first compound 37.5 µg/mL | first compound 75 µg/mL | first compound 150 µg/mL
partner 0.001 µg/mL | 0.94 | 0.969 | 0.728
partner 0.0078 µg/mL | 0.842 | 0.844 | 0.439

fitness, [5]
Conditions | partner 0.002 µg/mL | partner 0.0039 µg/mL | partner 0.0312 µg/mL | partner 0.0625 µg/mL | partner 0.125 µg/mL
first compound 37.5 µg/mL | 0.812 | 0.851 | 0.0268 | 0.0345 | 0.0392
first compound 75 µg/mL | 0.851 | 0.818 | 0.0206 | 0.0236 | 0.0256
first compound 150 µg/mL | 0.527 | 0.55 | 0.0178 | 0.0214 | 0.0173

CC[C@H](C)[C@H](N)C1=N[C@H](C(=O)N[C@@H](CC(C)C)C(=O)N[C@H](CCC(=O)O)C(=O)N[C@H](C(=O)N[C@H]2CCCCNC(=O)[C@H](CC(N)=O)NC(=O)[C@@H](CC(=O)O)NC(=O)[C@H](Cc3cnc[nH]3)NC(=O)[C@@H](Cc3ccccc3)NC(=O)[C@H]([C@@H](C)CC)NC(=O)[C@@H](CCCN)NC2=O)[C@@H](C)CC)CS1 [Bacitracin] + C[C@H]1c2cccc(O)c2C(=O)C2=C(O)[C@]3(O)C(=O)C(C(N)=O)=C(O)[C@@H](N(C)C)[C@@H]3[C@@H](O)[C@@H]21 [Doxycycline]
Conditions | Bliss interaction score
[1] | -0.0186
[2] | 0.0989
[3] | -0.0867
[4] | 0.101

fitness, [5]
Conditions | first compound 37.5 µg/mL | first compound 75 µg/mL | first compound 150 µg/mL
partner 0.02 µg/mL | 0.844 | 0.81 | –
partner 0.04 µg/mL | 0.716 | 0.664 | 0.48
partner 0.08 µg/mL | 0.476 | 0.218 | 0.0689
